Tested on: weaning foals
Experiment: Ointment test on weaning foals, behavioral observations
Assay type: in vivo, horse
Set-up: increase of vocalizations compared to control treatment: concentration or dose not given beside the values
Protocol: A total of 20 foals divided into two groups (Group A, n=10; Group B, n=10) were weaned in pens of similar size and at the same time of the day (9 am), and were evaluated using a control and pheromone compositions. All horses were between 5 and 6 months of age and mixed breeds, primarily quarter horses. An ointment form of the composition comprising Androstenone was prepared in accordance with Table 7 for administering to the horses in this study.
An ointment composition containing a different pheromone, 2-methylbut-2-enal (RP, 1 mg/mL), was also prepared for administration in a comparison study. An ointment containing no pheromone was prepared and used as control (CON). In group A, 5 foals were used for the control treatment, 3 foals were used for the RP treatment, and 2 foals were used for the Androstenone treatment. In group B, 3 foals were used for the control treatment, 3 foals were used for the RP treatment, and 4 foals were used for the Androstenone treatment. As such, a total of 8 foals were used for the control treatment, 6 foals were used for the RP treatment, and 6 foals were used for the Androstenone treatment in this entire study. Both of the pheromone formulations and the control were applied to each nostril. Control treatments were administered first to prevent any cross contamination to horses during day two.
Behavioral observations were taken during the first 10 minutes (Group A and Group B) and then for four hours (Group B only) after the mares were separated from their foals. Foal behavior was recorded every minute during the first hour (or 10 minutes) and every 5 minutes for the remaining 3 hours of the study for Group B.
Behaviors were not mutually exclusive.
The number of shocks received by the electric fence (as foals tried to return to their mare) and vocalizations were recorded continuously. The total number of observations of each defined behaviors over the first 4 hours in Group B is presented in Table 9, which also provides the percentage of each behavior over the total number of recorded number of behaviors.

[1] = Group B, first 4 hours after weaning
[2] = Group B, first 4 hours after weaning, ointment in each nostril
[3] = first 10 minutes post weaning (n = 20)
[4] = first 10 minutes post weaning, Group A and Group B (n = 20)

CC=C(C)C=O [RP, 2-methylbut-2-enal, reference compound]
increase of vocalizations compared to control treatment (4 hour period after weaning): 372% | effect on feeding (eating hay) (4 hour period after weaning, compared to control): decreased | Percent of observations: defecation [1]: 0.3% | Percent of observations: drink [1]: 0.3% | Percent of observations: feeding [1]: 2.9% | Percent of observations: fight [1]: 0.0% | Percent of observations: head shake [1]: 0.1% | Percent of observations: interact [1]: 0.0% | Percent of observations: lying [1]: 0.0% | Percent of observations: pace [1]: 1.4% | Percent of observations: paw [1]: 0.0% | Percent of observations: shock [1]: 1.0% | Percent of observations: stand [1]: 30.8% | Percent of observations: trot [1]: 3.1% | Percent of observations: vocal [1]: 58.6% | Percent of observations: walk [1]: 1.4% | Total observations: defecation [2]: 2 | Total observations: drink [2]: 2 | Total observations: feeding [2]: 21 | Total observations: fight [2]: 0 | Total observations: head shake [2]: 1 | Total observations: interact [2]: 0 | Total observations: lying [2]: 0 | Total observations: pace [2]: 10 | Total observations: paw [2]: 0 | Total observations: shock [2]: 7 | Total observations: stand [2]: 220 | Total observations: trot [2]: 22 | Total observations: vocal [2]: 422 | Total observations: walk [2]: 10 | increase of vocalizations over controls (first 10 minutes after weaning): 42 fold | Percent of observations: defecation [3]: 0.0% | Percent of observations: drink [3]: 0.0% | Percent of observations: eat [3]: 0.0% | Percent of observations: fight [3]: 0.0% | Percent of observations: head shake [3]: 0.0% | Percent of observations: interact [3]: 0.0% | Percent of observations: lying [3]: 0.0% | Percent of observations: pace [3]: 6.1% | Percent of observations: paw [3]: 0.0% | Percent of observations: shock [3]: 3.3% | Percent of observations: stand [3]: 24.2% | Percent of observations: trot [3]: 66.7% | Percent of observations: vocal [3]: 69.7% | Percent of observations: walk [3]: 3.0% | Total observations: defecation [4]: 0 | Total observations: drink [4]: 0 | Total observations: eat [4]: 0 | Total observations: fight [4]: 0 | Total observations: head shake [4]: 0 | Total observations: interact [4]: 0 | Total observations: lying [4]: 0 | Total observations: pace [4]: 2 | Total observations: paw [4]: 0 | Total observations: shock [4]: 4 | Total observations: stand [4]: 8 | Total observations: trot [4]: 22 | Total observations: vocal [4]: 85 | Total observations: walk [4]: 1
